Legend:
[1] = test system: immune system organs (spleen, lymph nodes and thymus); assay: Organ Weight and Total Cell Recovery, JP-8 exposed mice; type: in vivo, C57B16 mice; design: Spleen Weight / Thymus Weight: unit not given here
Procedure: (§1) At 24 hours after the last exposure, the animals were sacrificed and the effects of exposure on the immune system examined. Immune organs (spleen, thymus, blood, lymph nodes and bone marrow) were recovered and analyzed for effects on organ weight, total cell numbers, immune cell populations (by differentials), and lymphocyte subpopulations (by flow cytometry). Assays were also performed to examine the effects of exposure on immune function. […] Similar effects on immune cell subpopulations were also observed in lymph nodes. In the thymus it appeared that the immature CD4^+ CD8^+ cells were differentially lost due to exposure. […] However, these effects are prevented or ameliorated by treatment of the animals with Substance P.
Organ Weight and Total Cell Recovery: For each of the immune system organs (spleen, lymph nodes and thymus) the wet weight is determined after removal using a microbalance. After processing of the organs into single cell suspensions the cell numbers and viabilities are determined using trypan blue staining. Histochemical differentials are performed at this time. Cell numbers and viabilities are again determined after centrifugation of the cell suspensions through density gradients to obtain mononuclear cells.

[2] = test system: lymphocyte subpopulations; assay: Flow cytometric analyses (FACS) of immune organs, JP-8 exposed mice; type: in vivo, C57B16 mice
Procedure: as §1
Flow cytometric analyses (FACS): One- and two-color FACS analyses are performed using a Becton-Dickinson FACStar Plus flow cytometer. Cells are stained with the indicated monoclonal antibodies according to standard procedures (Harris et al., id). Cells alone and cells reacted with conjugated isotype control, irrelevant mAbs are used as controls. Data is presented as the percentage of cells staining positive for each individual mAb.

[3] = JP-8 dose 0 + SP or antagonist aerosol
[4] = JP-8 dose 1000 + SP or antagonist aerosol
[5] = JP-8 dose 0 + antagonist aerosol

COc1ccccc1CN[C@H]1C2CCN(CC2)[C@H]1C(c1ccccc1)c1ccccc1 [CP, CP-96,345, reference compound]
BM Cell Number [1, 3]: 29
LN Cell Number [1, 3]: 9.8
Spleen Cell Number [1, 3]: 16
Spleen Weight [1, 3]: 0.12
Thymus Cell Number [1, 3]: 50
Thymus Weight [1, 3]: 0.12
BM Cell Number [1, 4]: 22
LN Cell Number [1, 4]: 7.1
Spleen Cell Number [1, 4]: 7
Spleen Weight [1, 4]: 0.16
Thymus Cell Number [1, 4]: 75
Thymus Weight [1, 4]: 0.12
BM CD3, cells staining positive [2, 3]: 16%
BM CD4, cells staining positive [2, 3]: 9%
BM CD8, cells staining positive [2, 3]: 7%
BM CD45, cells staining positive [2, 3]: 27%
BM MAC1, cells staining positive [2, 3]: 33%
Spleen CD3, cells staining positive [2, 3]: 32%
Spleen CD4, cells staining positive [2, 3]: 21%
Spleen CD8, cells staining positive [2, 3]: 7%
Spleen CD45, cells staining positive [2, 3]: 24%
Spleen MAC1, cells staining positive [2, 3]: 3%
Thymus CD3, cells staining positive [2, 3]: 18%
Thymus DN, cells staining positive [2, 3]: 13%
Thymus DP, cells staining positive [2, 3]: 75%
Thymus SP4, cells staining positive [2, 3]: 12%
Thymus SP8, cells staining positive [2, 3]: 3%
LN CD3, cells staining positive [2, 5]: 49%
LN CD4, cells staining positive [2, 5]: 25%
LN CD8, cells staining positive [2, 5]: 12%
LN CD45, cells staining positive [2, 5]: 15%
LN MAC1, cells staining positive [2, 5]: 1%
PBL CD3, cells staining positive [2, 5]: 72%
PBL CD4, cells staining positive [2, 5]: 29%
PBL CD8, cells staining positive [2, 5]: 13%
PBL CD45, cells staining positive [2, 5]: 12%
PBL MAC1, cells staining positive [2, 5]: 7%
BM CD3, cells staining positive [2, 4]: 14%
BM CD4, cells staining positive [2, 4]: 7%
BM CD8, cells staining positive [2, 4]: 3%
BM CD45, cells staining positive [2, 4]: 41%
BM MAC1, cells staining positive [2, 4]: 26%
LN CD3, cells staining positive [2, 4]: 95%
LN CD4, cells staining positive [2, 4]: 35%
LN CD8, cells staining positive [2, 4]: 23%
PBL CD3, cells staining positive [2, 4]: 50%
PBL CD4, cells staining positive [2, 4]: 20%
PBL CD8, cells staining positive [2, 4]: 15%
PBL CD45, cells staining positive [2, 4]: 27%
PBL MAC1, cells staining positive [2, 4]: 6%
Spleen CD3, cells staining positive [2, 4]: 34%
Spleen CD4, cells staining positive [2, 4]: 16%
Spleen CD8, cells staining positive [2, 4]: 9%
Spleen CD45, cells staining positive [2, 4]: 26%
Spleen MAC1, cells staining positive [2, 4]: 11%
Thymus CD3, cells staining positive [2, 4]: 17%
Thymus DN, cells staining positive [2, 4]: 12%
Thymus DP, cells staining positive [2, 4]: 65%
Thymus SP4, cells staining positive [2, 4]: 17%
Thymus SP8, cells staining positive [2, 4]: 7%

COc1ccccc1CC(=N)N1C[C@@H]2C(=O)CCC(c3ccccc3)(c3ccccc3)[C@@H]2C1 [RP, MRP-67,580, reference compound]
BM Cell Number [1, 4]: 27
LN Cell Number [1, 4]: 6.8
Spleen Cell Number [1, 4]: 37
Spleen Weight [1, 4]: 0.10
Thymus Cell Number [1, 4]: 72
Thymus Weight [1, 4]: 0.03
BM CD3, cells staining positive [2, 4]: 12%
BM CD4, cells staining positive [2, 4]: 6%
BM CD8, cells staining positive [2, 4]: 5%
BM CD45, cells staining positive [2, 4]: 42%
BM MAC1, cells staining positive [2, 4]: 10%
LN CD3, cells staining positive [2, 4]: 96%
LN CD4, cells staining positive [2, 4]: 41%
LN CD8, cells staining positive [2, 4]: 29%
LN CD45, cells staining positive [2, 4]: 18%
LN MAC1, cells staining positive [2, 4]: 1%
PBL CD3, cells staining positive [2, 4]: 71%
PBL CD4, cells staining positive [2, 4]: 18%
PBL CD8, cells staining positive [2, 4]: 10%
PBL CD45, cells staining positive [2, 4]: 38%
PBL MAC1, cells staining positive [2, 4]: 9%
Spleen CD3, cells staining positive [2, 4]: 47%
Spleen CD4, cells staining positive [2, 4]: 16%
Spleen CD8, cells staining positive [2, 4]: 5%
Spleen CD45, cells staining positive [2, 4]: 39%
Spleen MAC1, cells staining positive [2, 4]: 1%
Thymus CD3, cells staining positive [2, 4]: 16%
Thymus DN, cells staining positive [2, 4]: 10%
Thymus DP, cells staining positive [2, 4]: 70%
Thymus SP4, cells staining positive [2, 4]: 12%
Thymus SP8, cells staining positive [2, 4]: 8%

From US5998376A, “Substance P treatment for immunostimulation” (priority 1998, dated 1999)
